One data set concerns Vero cells. As to the kind of experiment: Cytotoxicity in Vero cells by Alamar Blue assay. Format: cell-based, African green monkey. Conditions: 24 h. As for the experimental part: (§1) The Vero cell line was seeded in 96-well plates at approximately 20,000 cells per well until approximately 100% confluence was reached. […] All compounds were evaluated at elevated concentrations, diluted in 1% DMSO, to determine the maximum concentration at which they could remain in solution for experimental purposes. It was observed that most compounds were not fully soluble at 320 µM. […] Consequently, all further experiments were initiated from this concentration. […] Four hours later, fluorescence was measured using a BioTek Synergy HTX plate reader at 530/25 nm excitation and 590/25 nm emission. […] A color change in the growth control well to pink indicated proper cell growth, and no color change in the sterile control well indicated the absence of contaminants. The normalized viability percentages (Y-values) of viable host cells and viable T. gondii GFP RH tachyzoites were calculated from the mean ± standard deviation for each concentration evaluated in triplicate. The concentration values (X-axis) were subjected to logarithmic transformation to fit the data to a sigmoidal curve. The half-maximal cytotoxic concentration (CC50) was estimated as the interpolated concentration value on the X-axis corresponding to the response midway between the fitted top and bottom plateaus of the curve. Similarly, the half-maximal inhibitory concentration (IC50) was determined as the concentration at which the response was halfway between the top and the bottom plateaus. Data analysis and visualization were conducted using GraphPad Prism version 8.4.3 (GraphPad Software, San Diego, CA, USA). The selectivity index, also known as the Therapeutic Index, was calculated using the formula: SI = CC50/IC50.
For orientation: The colour change of resazurin is a common sign of viable cells or microbes.

Data set [1] relates to T. gondii RH GFP tachyzoites. Description: T. gondii RH GFP tachyzoite viability assay, 72 h continuous exposure. It counts as cell-based, Toxoplasma gondii. Conditions: for IC50: 72 h continuous exposure, GFP tachyzoite viability in Vero cells; for SI: CC50/IC50, 72 h continuous exposure. How it is done:
Approximately 10,000 tachyzoites of the T. gondii RH GFP strain were quantified using a hemocytometer and subsequently inoculated into Vero cells at full confluence per well in a 96-well plate using a medium conducive to parasite maintenance. Following our laboratory protocols and the methodologies outlined in previous studies, we routinely utilize an inoculum of 10,000 parasites for the Toxoplasma gondii RH-GFP tachyzoite viability assay, which is conducted over a 72 h duration. This parasite density ensures reliable detection of tachyzoite growth and viability while minimizing the likelihood of detachment or any degree of disruption to the host cell monolayer. Concurrently, derivatives of pyrazoline, pyrazole, and thiazolidinone nucleus compounds were introduced at […], with 1:2 dilutions commencing at 160 μM and decreasing to a minimum concentration of 1.25 μM in triplicate. The controls employed in this experiment included non-infected cells (NC), 10 μM pyrimethamine (Pyr), 1% dimethyl sulfoxide (DMSO), and infected cells without treatment (IC). Seventy-two hours post-infection, each well in the 96-well plate was examined using a 10× objective on the EVOS FL Color Imaging System with the GFP fluorescent light cube, and images were captured approximately at the center of each well. The parasites that glowed green were considered viable, and the percentage of tachyzoite viability was compared with that of the untreated parasites. Subsequently, images were recorded, contrast was adjusted, and a semiquantitative digital analysis was conducted using ImageJ v1.54d and the triangle auto-threshold method to determine the number of viable GFP fluorescent tachyzoites per image, as previously described. The percentage of viable parasites was calculated using the formula: Fluorescence of the sample with treatment URF × 100/fluorescence of the control without treatment, where URF = unit relatives of fluorescence calculated with the formula: (sample fluorescence/fluorescence in blank well) × 100.
(§2) The normalized viability percentages (Y-values) of viable host cells and viable T. gondii GFP RH tachyzoites were calculated from the mean ± standard deviation for each concentration evaluated in triplicate. The concentration values (X-axis) were subjected to logarithmic transformation to fit the data to a sigmoidal curve. The half-maximal cytotoxic concentration (CC50) was estimated as the interpolated concentration value on the X-axis corresponding to the response midway between the fitted top and bottom plateaus of the curve. Similarly, the half-maximal inhibitory concentration (IC50) was determined as the concentration at which the response was halfway between the top and the bottom plateaus. Data analysis and visualization were conducted using GraphPad Prism version 8.4.3 (GraphPad Software, San Diego, CA, USA). The selectivity index, also known as the Therapeutic Index, was calculated using the formula: SI = CC50/IC50.

In data set [2] the test system is T. gondii RH GFP tachyzoites. Description: T. gondii RH GFP tachyzoite viability following 24 h pretreatment of host cells. Conditions: for Host Cell Pre-Treatment SI: CC50/IC50, host cell pre-treatment; for IC50: Vero cells pretreated 24 h, read 72 h post-infection, read-out: Host Cell Pre-Treatment IC50. It counts as cell-based, Toxoplasma gondii. How it is done:
Subsequently, 10,000 T. gondii RH GFP tachyzoites were introduced into each well. The experimental controls included non-infected cells (NC), 10 μM pyrimethamine (Pyr), 1% dimethyl sulfoxide (DMSO), and infected cells without treatment (IC). After 24 h of host cell treatment, the medium was replaced with a compound-free medium for parasite maintenance. Seventy-two hours post-infection, each well of the 96-well plate was examined using a 10× objective on an Evos FL Auto Cell Imaging System microscope (Life Technologies, Carlsbad, CA, USA). A semiquantitative digital analysis was conducted using ImageJ v1.54d and the triangle auto-threshold method to quantify the number of viable GFP fluorescent tachyzoites per image, as previously described.
as §2

Data set [3] concerns T. gondii RH GFP tachyzoites. As to the kind of experiment: T. gondii RH GFP tachyzoite viability following 3 h pretreatment of parasites. Conditions: for Tachyzoite Pre-Treatment SI: CC50/IC50, tachyzoite pre-treatment; for IC50: read-out: Tachyzoite Pre-Treatment IC50. Format: cell-based, Toxoplasma gondii. How it is done: Following treatment, tachyzoites were centrifuged at 712× g for 10 min, and the supernatant was discarded. Fresh medium devoid of compounds was then added to resuspend the parasites. Subsequently, 10,000 pretreated T. gondii RH GFP tachyzoites were introduced into each well of a 96-well plate containing Vero cells at 100% confluence. Seventy-two hours post-infection, each well of the 96-well plate was examined using a 10× objective on an EVOS microscope. Semiquantitative digital analysis was performed using ImageJ v1.54d, employing the triangle auto-threshold method to quantify the number of viable GFP fluorescent tachyzoites per image, as previously described.
as §2

Data set [4] is described as follows: Cytotoxicity in Vero cells by Alamar Blue assay. Conditions: African green monkey. It counts as cell-based, African green monkey. As for the experimental part: as §1
The mark [5] stands for this setting: tachyzoites pretreated 3 h, read 72 h post-infection.
The mark [6] stands for this setting: Toxoplasma gondii, tachyzoites pretreated 3 h, read 72 h post-infection.

Bounds are passed on as bounds.

This note sets out measurements from article PMC12737779, “Concurrent Assessment of Synthetic and Natural Compounds on the Proliferation of Toxoplasma gondii in In Vitro Models” (Tropical Medicine and Infectious Disease, 2025).

For orientation: CC50 means the concentration at which the toxic effect on the cells reaches its halfway point. The term IC50 denotes the concentration that gives 50% inhibition.

Regarding `COc1ccc(C=C2SC(=NN=C(C)C(C)=NO)NC2=O)cc1` [Compound 12], in the data set with Vero cells, the CC50 amounted to 40.3 µM. In data set [1], the half-inhibitory concentration (IC50) came out at 3.9 µM and the SI was found to be 10.2. In data set [2], the “Host Cell Pre-Treatment SI” value worked out at 3.8 and the half-maximal inhibitory concentration (IC50) was 10.5 µM. The “Tachyzoite Pre-Treatment SI” value in data set [3] is listed as 6.9. In data set [3] (setting [5]), the IC50 was 5.8 µM.
With `COc1cc(C2=NNC(c3ccc4c(c3)OCO4)C2)ccc1O` (stereo not shown) [Compound 4], the cytotoxic concentration (CC50) with Vero cells is 154 µM. Further, the SI in data set [1] stood at 42.6. Besides, in data set [2], the “Host Cell Pre-Treatment SI” value is given as 28.9 and the 50% inhibitory concentration (IC50) was determined as 5.3 µM. Further, the “Tachyzoite Pre-Treatment SI” value in data set [3] came out at 4.8. The concentration for half-maximal inhibition (IC50) in data set [3] (setting [5]) amounted to 31.6 µM.
`CC(=N/O)/C(C)=N\N=C1/NC(=O)/C(=C/c2ccc(O)c(O)c2)S1` [Compound 13]: in the data set with Vero cells, the CC50 was greater than 160 µM. In addition, in data set [1], the IC50 came out at 8.8 µM and the SI is listed as greater than 18.1. In addition, the “Host Cell Pre-Treatment SI” value in data set [2] is on record as greater than 0.6. Further, the “Tachyzoite Pre-Treatment SI” value in data set [3] was greater than 8.0. The IC50 in data set [3] (setting [5]) stood at 19.8 µM.
Consider `CC(C)(C)n1nc(-c2c[nH]c3ccccc23)c(C#N)c1-c1c(Cl)cccc1Cl` [Compound 5], for which, in the data set on Vero cells, the cytotoxic concentration (CC50) is greater than 160 µM. In data set [1], this compound came in with a 50% inhibitory concentration (IC50) of 14 µM and an SI greater than 11.4.
Regarding `COc1cc(C2=NNC(c3ccc(F)cc3)C2)ccc1O` (stereo not shown) [Compound 1], the CC50 in the data set with Vero cells stood at 132 µM. In data set [1], this compound displayed an IC50 of 6.7 µM and an SI of 19.6. In data set [2], the “Host Cell Pre-Treatment SI” value came out at 17.5 and the IC50 is 7.5 µM. The “Tachyzoite Pre-Treatment SI” value in data set [3] is 5.6. Moreover, the half-inhibitory concentration (IC50) in data set [3] (setting [5]) came to 23.4 µM.
On to `COc1ccc(C2CC(c3ccc(O)c(OC)c3)=NN2)cc1` (stereo not shown) [Compound 3], for which the CC50 in the data set with Vero cells is greater than 160 µM. Further, in data set [1], the concentration for half-maximal inhibition (IC50) was 18.1 µM and the SI is listed as greater than 8.3.
Take `CCc1nc(N)nc(N)c1-c1ccc(Cl)cc1` [Pyrimethamine, pyrimethamine, reference compound]: the CC50 at 24 h in data set [4] was greater than 200 µM. In data set [1], this compound came in with an SI greater than 666. Besides, the IC50 in data set [1] (Toxoplasma gondii) stood at 0.3 µM; in data set [2] (Toxoplasma gondii), 1 µM; in data set [3] (Toxoplasma gondii), 6.1 µM. In addition, the “Host Cell Pre-Treatment SI” value in data set [2] is on record as greater than 190. Further, the “Tachyzoite Pre-Treatment SI” value in data set [3] was greater than 32.4.
For the compound `CC(=N/O)/C(C)=N\N=C1/NC(=O)/C(=C/c2ccc(C#N)cc2)S1` [Compound 11], the CC50 at 24 h in data set [4] was determined as 53.2 µM. Also, the SI in data set [1] is listed as 14.5. Besides, the IC50 in data set [1] (Toxoplasma gondii) was 3.6 µM; in data set [2] (Toxoplasma gondii), 22.5 µM; in data set [3] (setting [6]), 29.5 µM. The “Host Cell Pre-Treatment SI” value in data set [2] is on record as 2.3. The “Tachyzoite Pre-Treatment SI” value in data set [3] amounted to 1.8.
For the compound `CC(=N/O)/C(C)=N\N=C1\NC(=O)/C(=C/c2cc3ccccc3[nH]c2=O)S1` [Compound 15], the 50% cytotoxic concentration (CC50) at 24 h in data set [4] is greater than 160 µM. The SI in data set [1] is listed as greater than 16.8. The IC50 in data set [1] (Toxoplasma gondii) was 9.5 µM; in data set [2] (Toxoplasma gondii), 54.4 µM; in data set [3] (setting [6]), 4 µM. Also, the “Host Cell Pre-Treatment SI” value in data set [2] is reported as greater than 2.9. For the same compound, the “Tachyzoite Pre-Treatment SI” value in data set [3] was greater than 39.7.
In the case of `CC(=NO)C(C)=NN=C1NC(=O)C(=Cc2ccc(O)cc2)S1` [Compound 10], the half-maximal cytotoxic concentration (CC50) with Vero cells was found to be 61.2 µM. Further, in data set [1], the half-maximal inhibitory concentration (IC50) was 5.7 µM and the SI is 10.6. In data set [2], the “Host Cell Pre-Treatment SI” value worked out at 3.9 and the IC50 came to 15.4 µM. The “Tachyzoite Pre-Treatment SI” value in data set [3] came to 12.4. For the same compound, in data set [3] (setting [5]), the IC50 stood at 4.9 µM.
For `COc1cc(C2=NNC(c3ccc(Cl)cc3)C2)ccc1O` (stereo not shown) [Compound 2], the cytotoxic concentration (CC50) with Vero cells worked out at 123 µM. Moreover, in data set [1], the SI is reported as 73.3. Further, in data set [2], the “Host Cell Pre-Treatment SI” value stood at 16.4 and the IC50 was found to be 7.5 µM. In data set [3], the “Tachyzoite Pre-Treatment SI” value was 18.6. Also, the IC50 in data set [3] (setting [5]) turned out to be 6.6 µM.
Turning to `CC(=N/O)/C(C)=N\N=C1/NC(=O)/C(=C/c2ccc(Cl)cc2)S1` [Compound 14], the cytotoxic concentration (CC50) in the data set with Vero cells is greater than 160 µM. Besides, in data set [1], the half-inhibitory concentration (IC50) came to 142 µM and the SI is reported as greater than 1.1.
In the case of `CC(=NO)C(C)=NN=C1NC(=O)/C(=C/c2ccccc2O)S1` [Compound 9], in data set [4], the 50% cytotoxic concentration (CC50) at 24 h was greater than 160 µM. Also, the SI in data set [1] is greater than 25.9. Moreover, the IC50 in data set [1] (Toxoplasma gondii) came to 6.1 µM; in data set [2] (Toxoplasma gondii), 10.7 µM; in data set [3] (setting [6]), 0.9 µM. Also, the “Host Cell Pre-Treatment SI” value in data set [2] is recorded as greater than 14.9. Further, in data set [3], the “Tachyzoite Pre-Treatment SI” value was greater than 164.9.
As to `CC(C)(C)n1nc(-c2c[nH]c3ccccc23)c(C#N)c1-c1ccc(Br)cc1` [Compound 8], the half-maximal cytotoxic concentration (CC50) with Vero cells was greater than 160 µM. In data set [1], this compound yielded a 50% inhibitory concentration (IC50) of 21 µM and an SI greater than 7.6.
